Results as given in BigSolDB 2.1.

In the case of `CC(=O)N1CCN(c2ccc(O)cc2)CC1`, the solubility (mole fraction) (in 2-butoxyethanol, 283.15 K) is reported as 0.00309, the solubility (mole fraction) (in 2-butoxyethanol, 288.15 K) is reported as 0.00373 and the solubility (mole fraction) (in 2-butoxyethanol, 293.15 K) is reported as 0.00457. For the same molecule, the solubility (mole fraction) (in 2-butoxyethanol, 298.15 K) was 0.00537, the solubility (mole fraction) (in 2-butoxyethanol, 303.15 K) was 0.00617 and the solubility (mole fraction) (in 2-butoxyethanol, 308.15 K) was 0.00726. It also gave a solubility (mole fraction) (in 2-butoxyethanol, 313.15 K) of 0.00852, a solubility (mole fraction) (in 2-butoxyethanol, 318.15 K) of 0.0102 and a solubility (mole fraction) (in 2-butoxyethanol, 323.15 K) of 0.0118. For the same molecule, the solubility (mole fraction) (in 2-ethoxyethanol, 283.15 K) was 0.00486, the solubility (mole fraction) (in 2-ethoxyethanol, 288.15 K) was 0.0059 and the solubility (mole fraction) (in 2-ethoxyethanol, 293.15 K) was 0.00705. It also gave a solubility (mole fraction) (in 2-ethoxyethanol, 298.15 K) of 0.00829, a solubility (mole fraction) (in 2-ethoxyethanol, 303.15 K) of 0.00963 and a solubility (mole fraction) (in 2-ethoxyethanol, 308.15 K) of 0.0112. It also gave a solubility (mole fraction) (in 2-ethoxyethanol, 313.15 K) of 0.0134, a solubility (mole fraction) (in 2-ethoxyethanol, 318.15 K) of 0.0156 and a solubility (mole fraction) (in 2-ethoxyethanol, 323.15 K) of 0.0179. It also gave a solubility (mole fraction) (in 2-methoxyethanol, 283.15 K) of 0.00715, a solubility (mole fraction) (in 2-methoxyethanol, 288.15 K) of 0.00822 and a solubility (mole fraction) (in 2-methoxyethanol, 293.15 K) of 0.00968. For the same molecule, the solubility (mole fraction) (in 2-methoxyethanol, 298.15 K) was 0.0114, the solubility (mole fraction) (in 2-methoxyethanol, 303.15 K) was 0.0133 and the solubility (mole fraction) (in 2-methoxyethanol, 308.15 K) was 0.0153. It also gave a solubility (mole fraction) (in 2-methoxyethanol, 313.15 K) of 0.0181, a solubility (mole fraction) (in 2-methoxyethanol, 318.15 K) of 0.0212 and a solubility (mole fraction) (in 2-methoxyethanol, 323.15 K) of 0.0242. For the same molecule, the solubility (mole fraction) (in 2-propoxyethanol, 283.15 K) was 0.00403, the solubility (mole fraction) (in 2-propoxyethanol, 288.15 K) was 0.00474 and the solubility (mole fraction) (in 2-propoxyethanol, 293.15 K) was 0.00574. The solubility (mole fraction) (in 2-propoxyethanol, 298.15 K) was 0.00686, the solubility (mole fraction) (in 2-propoxyethanol, 303.15 K) was 0.00813 and the solubility (mole fraction) (in 2-propoxyethanol, 308.15 K) was 0.00951. For the same molecule, the solubility (mole fraction) (in 2-propoxyethanol, 313.15 K) was 0.011, the solubility (mole fraction) (in 2-propoxyethanol, 318.15 K) was 0.0128 and the solubility (mole fraction) (in 2-propoxyethanol, 323.15 K) was 0.015. It also gave a solubility (mole fraction) (in acetonitrile, 283.15 K) of 0.001, a solubility (mole fraction) (in acetonitrile, 288.15 K) of 0.00124 and a solubility (mole fraction) (in acetonitrile, 293.15 K) of 0.0015. It also gave a solubility (mole fraction) (in acetonitrile, 298.15 K) of 0.00181, a solubility (mole fraction) (in acetonitrile, 303.15 K) of 0.00217 and a solubility (mole fraction) (in acetonitrile, 308.15 K) of 0.00259. The solubility (mole fraction) (in acetonitrile, 313.15 K) was 0.00304, the solubility (mole fraction) (in acetonitrile, 318.15 K) was 0.00359 and the solubility (mole fraction) (in acetonitrile, 323.15 K) was 0.00433. For the same molecule, the solubility (mole fraction) (in ethanol, 283.15 K) was 0.00218, the solubility (mole fraction) (in ethanol, 288.15 K) was 0.00273 and the solubility (mole fraction) (in ethanol, 293.15 K) was 0.00328. The solubility (mole fraction) (in ethanol, 298.15 K) was 0.00396, the solubility (mole fraction) (in ethanol, 303.15 K) was 0.00467 and the solubility (mole fraction) (in ethanol, 308.15 K) was 0.00551. It also gave a solubility (mole fraction) (in ethanol, 313.15 K) of 0.00634, a solubility (mole fraction) (in ethanol, 318.15 K) of 0.00749 and a solubility (mole fraction) (in ethanol, 323.15 K) of 0.00887. The solubility (mole fraction) (in ethylene glycol, 283.15 K) was 0.000479, the solubility (mole fraction) (in ethylene glycol, 288.15 K) was 0.000658 and the solubility (mole fraction) (in ethylene glycol, 293.15 K) was 0.000921. For the same molecule, the solubility (mole fraction) (in ethylene glycol, 298.15 K) was 0.00123, the solubility (mole fraction) (in ethylene glycol, 303.15 K) was 0.00167 and the solubility (mole fraction) (in ethylene glycol, 308.15 K) was 0.00225. The solubility (mole fraction) (in ethylene glycol, 313.15 K) was 0.00293, the solubility (mole fraction) (in ethylene glycol, 318.15 K) was 0.00405 and the solubility (mole fraction) (in ethylene glycol, 323.15 K) was 0.00538. It also gave a solubility (mole fraction) (in isobutanol, 283.15 K) of 0.00108, a solubility (mole fraction) (in isobutanol, 288.15 K) of 0.00141 and a solubility (mole fraction) (in isobutanol, 293.15 K) of 0.00172. For the same molecule, the solubility (mole fraction) (in isobutanol, 298.15 K) was 0.00214, the solubility (mole fraction) (in isobutanol, 303.15 K) was 0.00251 and the solubility (mole fraction) (in isobutanol, 308.15 K) was 0.00292. For the same molecule, the solubility (mole fraction) (in isobutanol, 313.15 K) was 0.00353, the solubility (mole fraction) (in isobutanol, 318.15 K) was 0.00415 and the solubility (mole fraction) (in isobutanol, 323.15 K) was 0.00508. The solubility (mole fraction) (in isopropanol, 283.15 K) was 0.00132, the solubility (mole fraction) (in isopropanol, 288.15 K) was 0.00165 and the solubility (mole fraction) (in isopropanol, 293.15 K) was 0.00204. It also gave a solubility (mole fraction) (in isopropanol, 298.15 K) of 0.00263, a solubility (mole fraction) (in isopropanol, 303.15 K) of 0.00327 and a solubility (mole fraction) (in isopropanol, 308.15 K) of 0.00418. The solubility (mole fraction) (in isopropanol, 313.15 K) was 0.00526, the solubility (mole fraction) (in isopropanol, 318.15 K) was 0.00636 and the solubility (mole fraction) (in isopropanol, 323.15 K) was 0.00796. The solubility (mole fraction) (in methanol, 283.15 K) was 0.00286, the solubility (mole fraction) (in methanol, 288.15 K) was 0.00346 and the solubility (mole fraction) (in methanol, 293.15 K) was 0.00411. For the same molecule, the solubility (mole fraction) (in methanol, 298.15 K) was 0.00485, the solubility (mole fraction) (in methanol, 303.15 K) was 0.00581 and the solubility (mole fraction) (in methanol, 308.15 K) was 0.00679. For the same molecule, the solubility (mole fraction) (in methanol, 313.15 K) was 0.00806, the solubility (mole fraction) (in methanol, 318.15 K) was 0.00952 and the solubility (mole fraction) (in methanol, 323.15 K) was 0.0111. It also gave a solubility (mole fraction) (in n-butanol, 283.15 K) of 0.00119, a solubility (mole fraction) (in n-butanol, 288.15 K) of 0.00151 and a solubility (mole fraction) (in n-butanol, 293.15 K) of 0.00186. For the same molecule, the solubility (mole fraction) (in n-butanol, 298.15 K) was 0.00232, the solubility (mole fraction) (in n-butanol, 303.15 K) was 0.00298 and the solubility (mole fraction) (in n-butanol, 308.15 K) was 0.00392. The solubility (mole fraction) (in n-butanol, 313.15 K) was 0.00488, the solubility (mole fraction) (in n-butanol, 318.15 K) was 0.00612 and the solubility (mole fraction) (in n-butanol, 323.15 K) was 0.00765. It also gave a solubility (mole fraction) (in n-propanol, 283.15 K) of 0.00179, a solubility (mole fraction) (in n-propanol, 288.15 K) of 0.00206 and a solubility (mole fraction) (in n-propanol, 293.15 K) of 0.00238. The solubility (mole fraction) (in n-propanol, 298.15 K) was 0.00306, the solubility (mole fraction) (in n-propanol, 303.15 K) was 0.00372 and the solubility (mole fraction) (in n-propanol, 308.15 K) was 0.00459. The solubility (mole fraction) (in n-propanol, 313.15 K) was 0.00561, the solubility (mole fraction) (in n-propanol, 318.15 K) was 0.00683 and the solubility (mole fraction) (in n-propanol, 323.15 K) was 0.00829.
